Experimental data as given in patent publication US11827616B2, “Heterocyclic compounds as pesticides” (Discovery Purchaser Corporation, priority 2018, dated 2023).

How the values were obtained:
Format in all cases: in vivo
Boophilus microplus = Boophilus microplus injection test; conditions: application rate 20 μg/animal, after 7 days
Outline: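 Compound dissolved in DMSO; 1 μl injected into the abdomen of engorged adult female ticks, five per group, kept in climate-controlled room. Efficacy scored after 7 days from fertile egg laying (100% = no fertile eggs; 0% = all fertile), with unclear eggs held ~42 days until hatching.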

Meloidogyne incognita = Meloidogyne incognita test; conditions: application rate 20 ppm; after 14 days
Experimental: Meloidogyne incognita Test
Solvent: 125.0 parts by weight of acetone
To produce a suitable active compound formulation, 1 part by weight of active compound is mixed with the stated amount of solvent and the concentrate is diluted to the desired concentration with water.
Vessels are filled with sand, active compound solution, an egg/larvae suspension of the southern root-knot nematode (Meloidogyne incognita) and lettuce seeds. The lettuce seeds germinate and the plants develop. The galls develop on the roots.
After 14 days, the nematicidal efficacy in % is determined by the formation of galls. 100% means that no galls were found; 0% means that the number of galls on the treated plants corresponds to the untreated control.

Ctenocephalides felis = Ctenocephalides felis oral test; conditions: application rate 100 ppm in citrated cattle blood; after 2 days
Outline: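 About 20 unfed adult cat fleas fed via parafilm membrane on citrated cattle blood containing compound (DMSO formulation). Kill % scored after 2 days, 100% meaning all fleas dead.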

Musca domestica = Musca domestica test; conditions: application rate 100 ppm; adult houseflies; after 2 days
Experimental: Solvent: dimethyl sulfoxide
To produce a suitable active compound formulation, 10 mg of active compound are mixed with 0.5 ml of dimethyl sulfoxide, and the concentrate is diluted with water to the desired concentration.
Vessels containing a sponge treated with sugar solution and the desired concentration of active compound formulation are populated with 10 adult houseflies (Musca domestica).
After 2 days, the kill in % is determined. 100% means that all of the flies have been killed; 0% means that none of the flies have been killed.

Phaedon cochleariae = Phaedon cochleariae spray test; conditions: application rate 500 g/ha; after 7 days
Outline: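 Chinese cabbage leaf discs sprayed with compound formulated in acetone/DMF and water with 1000 ppm emulsifier, then infested with mustard beetle larvae once dry. Percent larval kill scored after 7 days (100% = all dead, 0% = none).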

Lucilia cuprina = Lucilia cuprina test; conditions: application rate 100 ppm; L1 larvae; after 2 days
Outline: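 About 20 first-instar larvae were placed in vessels of minced horsemeat with compound at the desired concentration. Compound was dissolved in DMSO and diluted in water. Percent kill scored after 2 days.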

Spodoptera frugiperda = Spodoptera frugiperda spray test; conditions: application rate 500 g/ha; after 7 days
Outline: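 Maize leaf discs sprayed with compound formulated in acetone/dimethylformamide and diluted in water with 1000 ppm alkylaryl polyglycol ether emulsifier. Once dry, discs are infested with fall armyworm caterpillars. Efficacy in % read after 7 days: 100% all caterpillars killed, 0% none killed.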

Nezara viridula = Nezara viridula spray test; conditions: application rate 500 g/ha; after 4 days
Experimental: Nezara viridula—Spray Test
(§1) Solvent: 78.0 parts by weight of acetone • • 1.5 parts by weight of dimethylformamide
(§2) Emulsifier: alkylaryl polyglycol ether
(§3) To produce a suitable active compound formulation, 1 part by weight of active compound is dissolved with the specified parts by weight of solvent and made up to the desired concentration with water containing an emulsifier concentration of 1000 ppm. To produce further test concentrations, the formulation is diluted with emulsifier-containing water.
Barley plants (Hordeum vulgare) infected with larvae of the Southern green shield bug (Nezara viridula) are srayed with an active compound formulation of the desired concentration.
After 4 days, the efficacy in % is determined. 100% means that all of the shield bugs have been killed; 0% means that none of the shield bugs have been killed.

Tetranychus urticae = Tetranychus urticae spray test, OP-resistant; conditions: application rate 500 g/ha; after 6 days
Outline: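 Bean leaf discs carrying all stages of OP-resistant Tetranychus urticae were sprayed with compound in acetone/dimethylformamide diluted in water containing alkylaryl polyglycol ether emulsifier (1000 ppm). Mortality scored after 6 days as % efficacy (100% = all mites killed).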

Myzus persicae = Myzus persicae spray test; conditions: application rate 500 g/ha; after 5 days
Experimental: Myzus persicae—Spray Test
Solvent: 78 parts by weight of acetone • • 1.5 parts by weight of dimethylformamide
as §2, §3
Discs of Chinese cabbage leaves (Brassica pekinensis) infested by all stages of the green peach aphid (Myzus persicae) are sprayed with an active compound formulation of the desired concentration.
After 5 days, the efficacy in % is determined. 100% means that all the aphids have been killed; 0% means that no aphids have been killed.

Nilaparvata lugens = Nilaparvata lugens test; conditions: application rate 500 g/ha; after 4 days
Experimental: as §1, §2, §3
Rice plants (Oryza sativa) are sprayed with the active compound formulation of the desired concentration and then infected with the brown planthopper (Nilaparvata lugens).
After 4 days, the efficacy in % is determined. 100% means that all of the planthoppers have been killed; 0% means that none of the planthoppers have been killed.

Row | Structure (SMILES) | efficacy (laying of fertile eggs) (Boophilus microplus) [%] | nematicidal efficacy (formation of galls) (Meloidogyne incognita) [%] | efficacy (kill in %) (Ctenocephalides felis) [%] | efficacy (kill in %) (Musca domestica) [%] | efficacy (Phaedon cochleariae) [%] | efficacy (kill in %) (Lucilia cuprina) [%] | efficacy (Spodoptera frugiperda) [%] | efficacy (Nezara viridula) [%] | efficacy (Tetranychus urticae) [%] | efficacy (Myzus persicae) [%] | efficacy (Nilaparvata lugens) [%]
1 | CC(=O)N1CCC(Oc2ccc(COc3ccc(Cl)c4ccccc34)cn2)C1 (stereo not shown) [Example 4] | 100 | 90 | 100 | 80 | 100 | 100 | 100 |  |  |  | 
2 | CON(C)CCOc1cnc(COc2ccc(F)c(-c3cccc(OC(F)(F)F)c3)c2)c(F)c1 [Example 50] |  |  |  |  | 100 |  | 100 | 100 | 100 | 90 | 100
